This is an account of results in patent US20030119186A1, “Enzyme-mediated modification of fibrin for tissue engineering: fibrin formulations with peptides” (Eidgenossische Technische Hochschule Zurich, priority 1998, published 2003).

In assay [1] the test system is day 8 chick dorsal root ganglia. In words: Neurite outgrowth from dorsal root ganglia embedded in three dimensional peptide-modified fibrin gels, normalized to unmodified fibrin. The class given is cell-based. The note with it: for concentration of incorporated peptide giving maximal effect on neurite outgrowth / correlation between peptide concentration and level of enhancement of neurite outgrowth / peptide concentration showing maximal enhancement of neurite outgrowth: single peptide cross-linked into fibrin, concentration series; for concentration of incorporated peptide giving maximal effect on neurite outgrowth / peptide concentration showing maximal enhancement of neurite outgrowth: growth at 24 and 48 hr; for Enhancement of Neurite Outgrowth (%): bi-domain peptide cross-linked into fibrin at 8 mol/mol fg without heparin, 48 hours, relative to unmodified fibrin. The protocol: FIG. 1 Enhancement of neurite outgrowth with HAV (SEQ. I.D. NO. 6) modified fibrin gels. A concentration series of HAV (SEQ. I.D. NO. 6) cross-linked into fibrin was tested in triplicate with day 8 chick dorsal root ganglia. The level of growth at 24 and 48 hours was calculated and normalized to growth in unmodified fibrin. Mean and standard error of the mean are shown. Legend to FIG. 1: -[…]- 24 Hours, -⋄- 48 Hours.
FIG. 8 Heparin binding peptides derived from three separate proteins, NCAM (SEQ. I.D. NO. 7), platelet factor 4 and antithrombin III were cross-linked into fibrin at 8 mol/mol fg. The level of neurite outgrowth at 48 hours was normalized against growth in unmodified fibrin and is shown below. Additionally, controls of crosslinked peptide with heparin or just soluble peptide were tested. […] Mean and standard error of the mean are shown. Legend for FIG. 8: ? Peptide Grafted at 8 mol/mol Fg, □ Peptide Grafted at 8 mol/mol Fg with Soluble Heparin, ? Peptide Added in Soluble Phase.
Multiple peptide sequences from extracellular matrix proteins have been chosen. These proteins were chosen in part because of their reported ability to enhance neurite outgrowth (Yamada, 1991, Tashiro, et al., 1989). These proteins have been tested at various concentrations. To test these peptides, specific selected peptide sequences were cross-linked into a three dimensional fibrin matrix with a day 8 dorsal root ganglia embedded into the gels. The neurites were grown for 48 hr, and the migration rate of the neurites extending from the ganglia was quantified for each condition at both 24 and 48 hr. This growth was then normalized to the growth in unmodified fibrin. […] HAV (SEQ. I.D. NO. 6) achieved a maximal effect at 2 mol/mol fg while RGD (SEQ. I.D. NO. 2) achieved a maximal effect at 1.5 mol/mol fg of incorporated peptide.
In one example, the peptide was cross-linked into the gel alone and in the second example, it was incorporated in the presence of heparin. […] Therefore, the effects of interaction between the growing neurites and either a heparin binding domain or heparin itself could be determined. When the peptide was incorporated without heparin present, it was able to enhance the extension of neurites from day 8 chick dorsal root ganglia. Three bi-domain peptides, each with a different heparin binding domain, were tested and gave statistically better growth than unmodified fibrin (FIG. 8). The level of improvement ranged from 75% to 25%. This level of enhancement could be correlated to the binding affinity of the heparin binding domain that was incorporated (Table 3). When heparin was added at the beginning of the study, it was discovered that this abolished the effect, resulting in growth similar to that seen in unmodified fibrin.

A short description of assay [2]: Elution from heparin affinity column (relative heparin binding affinity). To be noted: relative heparin binding affinity of bi-domain peptide. The source says:
Table 3 Provides results of the relative heparin binding affinity and enhancement of three dimensional neurite outgrowth for several heparin binding peptides. There is a correlation between the binding strength for each peptide and the percent enhancement of neurite outgrowth.

Where “and” joins values, the source holds several entries; their conditions need not be identical. Equal values may be shown once.

Take HAV (heparin binding peptide): the “concentration of incorporated peptide giving maximal effect on neurite outgrowth” value in assay [1] is given as 2 mol/mol fg.

With IKVAV (heparin binding peptide), in assay [1], the “correlation between peptide concentration and level of enhancement of neurite outgrowth” value is “linear correlation”; the “peptide concentration showing maximal enhancement of neurite outgrowth” value is recorded as 8 mol peptide/mol fibrinogen. Take LNQEQVSP K(βA)FAKLAARLYRKA [ATIII]: the “Enhancement of Neurite Outgrowth (%)” value in assay [1] was 73.1%. The “Elution from Heparin Affinity Column (Mol NaCl)” value (shortened to “Elution”) in assay [2] turned out to be 0.67 Mol NaCl. Turning to “LNQEQVSP KHKGRDVILKKDVR (LNQEQVSPKHKGRDVILKKDVR; heparin binding sequence) [PF4]”, in assay [1], the “Enhancement of Neurite Outgrowth (%)” value is reported as 20.2%. Further, in assay [2], the “Elution” value is listed as 0.34 Mol NaCl. “LNQEQVSP YKKIIKKL (LNQEQVSPYKKIIKKL) [NCAM]”: in assay [1], the “Enhancement of Neurite Outgrowth (%)” value is reported as 24.5%. The “Elution” value in assay [2] is listed as 0.35 Mol NaCl. RGD: the “concentration of incorporated peptide giving maximal effect on neurite outgrowth” value in assay [1] was 2 mol/mol fg and 1.5 mol/mol fg.

For RNIAEIIKDI, in assay [1], the “correlation between peptide concentration and level of enhancement of neurite outgrowth” value was “linear correlation”; the “peptide concentration showing maximal enhancement of neurite outgrowth” value is reported as 8 mol peptide/mol fibrinogen.

As for YIGSR (heparin binding peptide), in assay [1], the “correlation between peptide concentration and level of enhancement of neurite outgrowth” value is reported as “linear correlation”; the “peptide concentration showing maximal enhancement of neurite outgrowth” value was 6 mol peptide/mol fibrinogen.
